For eleven compounds, EC50 results are on record in patent US11325913B2, “Compounds and methods for the treatment of malaria” (THE BROAD INSTITUTE, INC., priority 2013, dated 2022).

In general, EC50 refers to the midpoint of the concentration-response curve. Higher therefore signals a need for much substance.

The test system of the first assay is P. falciparum Dd2. Briefly: Activity against the Dd2 strain of P. falciparum (SYBR Green I, 72 h). The settings on record: P. falciparum Dd2, 72 h incubation. The class given is cell-based. The method, boiled down: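 Parasites in human RBCs at 1% parasitemia and 1.0% hematocrit, exposed to compounds (0.125% DMSO) for 72 h at 37°C under 93% N2/4% CO2/3% O2. SYBR Green I in saponin/Triton lysis buffer added, 24 h staining, fluorescence read at 485/530 nm. EC50 derived against 20 μM mefloquine background and DMSO baseline.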
`O=C(Nc1ccccc1)N1CCCCN2[C@H](CO)[C@H](c3ccc(C#Cc4ccccc4)cc3)[C@@H]2C1` [Compound 78, (8R,9R,10S)-10-(hydroxymethyl)-N-phenyl-9-[4-(2-phenylethynyl)phenyl]-1,6-diazabicyclo[6.2.0] decane-6-carboxamide] returned an EC50 of 61 nM.

The assay is the same for the next values; noted with them: Plasmodium falciparum, DD2, 72 h, P. falciparum Dd2, 72 h incubation.
`COc1ccc(NC(=O)N2CCCCN3[C@H](CO)[C@H](c4ccc(C#Cc5ccccc5F)cc4)[C@@H]3C2)cc1` [Compound 72, (8R,9R,10S)-9-{4-[2-(2-fluorophenyl)ethynyl]phenyl}-10-(hydroxymethyl)-N-(4-methoxyphenyl)-1,6-diazabicyclo[6.2.0] decane-6-carboxamide] returned an EC50 of 17 nM.

The compound `COc1ccc(NC(=O)N2CCCCN3[C@H](CN4CC(C)(O)C4)[C@H](c4ccc(C#Cc5ccccc5)cc4)[C@@H]3C2)cc1` [Compound 73, (8R,9S,10S)-10-[(3-hydroxy-3-methylazetidin-1-yl)methyl]-N-(4-methoxyphenyl)-9-[4-(2-phenylethynyl)phenyl]-1,6-diazabicyclo[6.2.0] decane-6-carboxamide] yielded an EC50 of 104 nM. The same measure, in the same setting: as for `COc1ccc(NC(=O)N2CCCCCN3[C@H](CO)[C@H](c4ccc(C#Cc5ccccc5)cc4)[C@@H]3C2)cc1` [Compound 74, (9R,10R,11S)-11-(hydroxymethyl)-N-(4-methoxyphenyl)-10-[4-(2-phenylethynyl)phenyl]-1,7-diazabicyclo[7.2.0] undecane-7-carboxamide], the figure is 87 nM; as for `COc1ccc(NC(=O)N2CCCCN3[C@H](CO)[C@H](c4ccc(C#Cc5ccc(F)cc5F)cc4)[C@@H]3C2)cc1` [Compound 75, (8R,9R,10S)-9-{4-[2-(2,4-difluorophenyl)ethynyl]phenyl}-10-(hydroxymethyl)-N-(4-methoxyphenyl)-1,6-diazabicyclo[6.2.0] decane-6-carboxamide], 71 nM; as for `COc1ccc(NC(=O)N2CCCCN3[C@H](CN(C)C(C)=O)[C@H](c4ccc(C#Cc5ccccc5)cc4)[C@@H]3C2)cc1` [Compound 76, (8R,9S,10S)-N-(4-methoxyphenyl)-10-[(N-methylacetamido)methyl]-9-[4-(2-phenylethynyl)phenyl]-1,6-diazabicyclo[6.2.0] decane-6-carboxamide], 8 nM.

`COc1ccc(NC(=O)N2CCCCN3[C@H](CO)[C@H](c4ccc(-c5ccn(-c6ccccc6)n5)cc4)[C@@H]3C2)cc1` [Compound 77, (8R,9R,10S)-10-(hydroxymethyl)-N-(4-methoxyphenyl)-9-[4-(1-phenyl-1H-pyrazol-3-yl)phenyl]-1,6-diazabicyclo[6.2.0] decane-6-carboxamide] showed an EC50 of 4890 nM. This EC50 lies about 610-fold higher than the previous one. Same read-out and setting: as for `COc1ccc(NC(=O)N2CCCN3[C@H](CO)[C@H](c4ccc(C#Cc5ccccc5)cc4)[C@@H]3C2)cc1` [Compound 79, (7R,8R,9S)-9-(hydroxymethyl)-N-(4-methoxyphenyl)-8-[4-(2-phenylethynyl)phenyl]-1,5-diazabicyclo[5.2.0] nonane-5-carboxamide], the figure is 850 nM.

As for `COc1ccc(NC(=O)N2CCCCN3[C@H](COCCC(=O)O)[C@H](c4ccc(C#Cc5ccccc5)cc4)[C@@H]3C2)cc1` [Compound 80, 3-(((8R,9R,10S)-6-((4-methoxyphenyl)carbamoyl)-9-(4-(phenylethynyl)phenyl)-1,6-diazabicyclo[6.2.0]decan-10-yl)methoxy)propanoic acid], a half-maximal effect (EC50) was put at 23 nM. In the case of `COc1ccc(NC(=O)N2CCCCN3[C@H](CO)[C@H](c4ccc(C#Cc5ccccc5)cn4)[C@@H]3C2)cc1` [Compound 81, (8R,9R,10S)-10-(hydroxymethyl)-N-(4-methoxyphenyl)-9-(5-(phenylethynyl)pyridin-2-yl)-1,6-diazabicyclo[6.2.0] decane-6-carboxamide], the EC50 worked out at 34 nM. On the same count and under the same terms, as for `COc1ccc(NC(=O)N2CCCCN3[C@@H](CNC(C)=O)[C@H](c4ccc(C#Cc5ccccc5)cc4)[C@@H]3C2)cc1` [Compound 82, (8R,9S,10R)-10-(acetamidomethyl)-N-(4-methoxyphenyl)-9-(4-(phenylethynyl)phenyl)-1,6-diazabicyclo[6.2.0] decane-6-carboxamide], the figure is 3 nM.
